# According to patent US20230001005A1, “TREATMENT OF CANCERS WITH ANTIBODY DRUG CONJUGATES (ADC) THAT BIND TO 191P4D12 PROTEINS” (AGENSYS, INC., priority 2019, published 2023):
# Starred links: 1 amine or outer side, 2 acyl side, 3 side chain; linkers in the order of their positions; H or OH if unused. Non-standard residues stand in square brackets, D forms with d. Residues, ends and D or L forms follow the SMILES beside them. *: point of attachment. Dolaproine = CO[C@@H]([C@@H]1CCCN1)[C@@H](C)C(=O)O; Hexanoyl(6-maleimido) = O=C1C=CC(=O)N1CCCCCC(=O)*; Dil = CC[C@H](C)[C@H](NC)[C@@H](CC(=O)O)OC; PABC = O=C(OCc1ccc(N[*:1])cc1)[*:2]; X1 = C[C@@H](N*)[C@@H](O)c1ccccc1; Cit = NC(=O)NCCC[C@H](N)C(=O)O; NMeV = CN[C@H](C(=O)O)C(C)C
# Tests used:
# [1] = system: xenograft of human HR+breast cancer cell line; experiment: Tumor xenograft model, human HR+ breast cancer cell line; assay type: in vivo; details: 5 mg/kg every 4 days for 4 doses
# [2] = system: lung cancer xenografts; experiment: Formation of lung cancer xenografts (subcutaneous mouse xenograft model); parameters: species or system SCID mice; details: in vivo
# Description: (§1) Subcutaneous (s.c.) tumors are generated by injection of 5×10^4- 10^6 cancer cells mixed at a 1:1 dilution with Matrigel (Collaborative Research) in the right flank of male SCID mice. To test ADC efficacy on tumor formation, ADC injections are started on the same day as tumor-cell injections. As a control, mice are injected with either purified human IgG or PBS; or a purified MAb that recognizes an irrelevant antigen not expressed in human cells. In preliminary studies, no difference is found between control IgG or PBS on tumor growth. Tumor sizes are determined by caliper measurements, and the tumor volume is calculated as width^2×Length/2, wherein width is the smallest dimension and length is the largest dimension. Mice with subcutaneous tumors greater than 1.5 cm in diameter are sacrificed.
# [3] = system: breast cancer xenografts; experiment: Formation of breast cancer xenografts (subcutaneous mouse xenograft model); parameters: species or system SCID mice; details: in vivo
# Description: as §1
# [4] = system: cynomolgus monkeys; experiment: Immunogenicity in cynomolgus monkeys; assay type: in vivo
# [5] = system: human lung cancer xenograft AG-L4; experiment: Efficacy in subcutaneous established human lung cancer xenograft AG-L4 in SCID mice; assay type: in vivo; details: 10 mg/kg every seven days for two doses, intravenous bolus; compared to control ADC
# Description: In another experiment, patient-derived lung cancer xenograft AG-L4 was maintained by serial passages in SCID mice. Stock tumors were harvested sterilely and minced into 1 mm^3 pieces. Six (6) pieces were implanted into the flank of individual SCID mice. Tumors were allowed to grow untreated until they reached an approximate volume of 200 mm^3. The Ha22-2(2,4)6.1vcMMAE and the control ADC were dosed at 10 mg/kg every seven (7) days for two doses by intravenous bolus injection. The amount of ADC administered was based on the individual body weight of each animal obtained immediately prior to dosing. Tumor growth was monitored using caliper measurements every 3 to 4 days. Tumor volume was calculated as Width^2×Length/2, where width is the smallest dimension and length is the largest dimension.
# [6] = system: patient-derived lung adenocarcinoma; experiment: Tumor xenograft model, patient-derived lung adenocarcinoma; assay type: in vivo
# [7] = system: male and female rats; experiment: Immunogenicity in rats; assay type: in vivo
# [8] = system: cynomolgus monkeys
# [9] = system: xenografts of human lung adenocarcinoma cell line; experiment: Tumor xenograft model, human lung adenocarcinoma cell line; assay type: in vivo
# [10] = system: cell line engineered to express human 191P4D12; experiment: In vitro cell survival, engineered cell line; assay type: cell-based
# [11] = system: patient-derived TNBC cell xenograft; experiment: Patient-derived TNBC cell xenograft model; assay type: in vivo
# [12] = system: xenograft of a patient-derived bladder cancer; experiment: Tumor xenograft model, patient-derived bladder cancer; assay type: in vivo; details: in a dose-dependent manner
# [13] = system: human breast cancer xenograft BT-483; experiment: Efficacy in subcutaneous established human breast cancer xenograft BT-483 in SCID mice; assay type: in vivo; details: 5 mg/kg every four days for four doses, intravenous bolus; compared to control ADC
# Description: In this experiment, human breast cancer BT-483 cells were used to generate stock xenografts, which were maintained by serial passages in SCID mice. Stock tumors were harvested sterilely and minced into 1 mm^3 pieces. Six (6) pieces were implanted into the flank of individual SCID mice. Tumors were allowed to grow untreated until they reached an approximate volume of 100 mm^3. The Ha22-2(2,4)6.1vcMMAE and the control ADC were dosed at 5 mg/kg every four (4) days for four (4) doses by intravenous bolus injection. The amount of ADC administered was based on the individual body weight of each animal obtained immediately prior to dosing. Tumor growth was monitored using caliper measurements every 3 to 4 days. Tumor volume was calculated as Width^2×Length/2, where width is the smallest dimension and length is the largest dimension.
# [14] = Absorbance / phototoxicity assessment (ICH S10)
# [15] = system: squamous NSCLC, Gastric (GEJ) cancer, HNSCC, NSCLC-adenocarcinoma, head & neck cancer-squamous, and breast cancer; details: MMAE, Vinca, or both MMAE and Vinca; Vinca used if data for MMAE was not available; cited from earlier work
# [16] = system: rats; experiment: Micronucleus test in rats; assay type: in vivo
# [17] = system: L5178Y TK+/−mouse lymphoma; experiment: L5178Y TK+/− mouse lymphoma mutation assay; assay type: cell-based
# [18] = system: bacteria; experiment: Reverse mutation test in bacteria (Ames test)
# [19] = system: acute myeloid leukemia (AML) at relapse; details: administered alone; cited from earlier work
# [20] = system: rats; experiment: Toxicity studies in rats; assay type: in vivo
# [21] = system: patients who progressed after platinum chemotherapy and a PD-1/L1 inhibitor; experiment: EV-201 pivotal phase 2 study; assay type: in vivo, human
# Description: In a pivotal phase 2 study (EV-201), patients must have had prior treatment with platinum-containing chemotherapy or be platinum-naïve and ineligible for cisplatin treatment. […] The confirmed ORR was 44% in patients treated with enfortumab vedotin 1.25 mg/kg. The median OS was 11.7 months and the median duration of response was 7.6 months.
# [22] = target: T1, 191P4D12 (Homo sapiens, UniProt Q96NY8); experiment: Comparability study: binding affinity to 191P4D12
# T1 sequence (Q96NY8 32-510): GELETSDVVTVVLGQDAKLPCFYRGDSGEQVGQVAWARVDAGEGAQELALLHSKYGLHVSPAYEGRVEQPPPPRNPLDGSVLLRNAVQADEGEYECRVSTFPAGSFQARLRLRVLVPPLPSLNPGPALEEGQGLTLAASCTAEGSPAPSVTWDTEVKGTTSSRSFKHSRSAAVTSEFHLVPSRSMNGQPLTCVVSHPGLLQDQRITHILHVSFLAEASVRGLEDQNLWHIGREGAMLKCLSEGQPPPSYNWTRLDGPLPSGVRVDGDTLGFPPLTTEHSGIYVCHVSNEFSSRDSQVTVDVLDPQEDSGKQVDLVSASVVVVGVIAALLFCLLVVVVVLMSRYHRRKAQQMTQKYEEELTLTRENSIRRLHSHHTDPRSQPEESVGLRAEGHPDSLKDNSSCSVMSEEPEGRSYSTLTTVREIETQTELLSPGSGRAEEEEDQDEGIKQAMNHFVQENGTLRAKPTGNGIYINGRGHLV
# [23] = Comparability study: in vivo antitumor activity
# [24] = system: metastatic urothelial cancer; experiment: EV-101 phase 1 dose escalation/expansion study; assay type: in vivo, human
# Excerpt: EV-101 is a phase 1 dose escalation/expansion study that enrolled patients with 191P4D12-expressing solid tumors, (eg, metastatic urothelial cancer [UC]), who progressed on ≥1 prior chemotherapy regimen, including a cohort of patients with metastatic UC who received prior anti-PD-(L)1 therapy.
# Enfortumab vedotin provided durable responses and meaningful survival results in patients after anti-PD-(L)-1 therapy in a population with a high unmet medical need. The confirmed ORR was 45% by a central review in patients who were treated with enfortumab vedotin 1.25 mg/kg. The median overall survival (OS) of 12.3 months is encouraging given the historical median OS is ≤10.3 months (Bellmunt J et al, N Eng J Med. 2017; 376(11):1015-1026).
# [25] = system: monkeys; experiment: Toxicity studies in monkeys; details: sexually immature male monkeys, doses up to 6 mg/kg
# [26] = Comparability study: in vitro cytotoxicity; assay type: cell-based
molecule,measurement,setting,value
"AGS-22M6E: ADC derived from a murine hybridoma cell line; antibody Ha22-2(2,4)6.1 conjugated to MMAE via vc linker",tumor growth,[1],significantly inhibited the tumor growth
same,formation of lung cancer xenografts,[2],inhibits formation
same,formation of breast cancer xenografts,[3],inhibits formation
same,immunogenicity,[4],moderately immunogenic
same,"immunogenicity, AGS-22M6E versus enfortumab vedotin",[4],comparable
same,growth of AG-L4 lung cancer xenografts (tumor volume),[5],significantly inhibited the growth
same,tumor growth,[6],significantly inhibited tumor growth
same,immunogenicity,[7],moderately immunogenic
same,"pharmacokinetics, AGS-22M6E versus enfortumab vedotin",[8],comparable
same,"safety profile, AGS-22M6E versus enfortumab vedotin",[8],comparable
same,tumor growth,[9],significantly inhibited tumor growth
same,cell survival / cell growth,[10],inhibited cell survival
same,"pharmacological antitumor activity, enfortumab vedotin versus AGS-22M6E",[11],comparable
same,tumor growth,[12],significantly inhibited the tumor growth
same,growth of BT-483 breast tumor xenografts (tumor volume),[13],significantly inhibited the growth
"CC[C@H](C)[C@@H]([C@@H](CC(=O)N1CCC[C@H]1[C@H](OC)[C@@H](C)C(=O)N[C@H](C)[C@@H](O)c1ccccc1)OC)N(C)C(=O)[C@@H](NC(=O)[C@@H](NC)C(C)C)C(C)C [MMAE, monomethyl auristatin E] (H-[NMeV]V[Dil][Dolaproine]-X1)",absorbance in the range of 290 nm to 700 nm,[14],no absorbance
same,sensitivity of the cancers to cytotoxicity,[15],sensitive to cytotoxicity
same,chromosomal aberrations,[16],induce chromosomal aberrations
same,genotoxic potential,[17],no discernible genotoxic potential
same,genotoxic potential,[18],no discernible genotoxic potential
"CT-011: anti-PD-1 antibody, a humanized antibody",response,[19],failed to show response
"CC[C@H](C)[C@@H]([C@@H](CC(=O)N1CCC[C@H]1[C@H](OC)[C@@H](C)C(=O)N[C@H](C)[C@@H](O)c1ccccc1)OC)N(C)C(=O)[C@@H](NC(=O)[C@H](C(C)C)N(C)C(=O)OCc1ccc(NC(=O)[C@H](CCCNC(N)=O)NC(=O)[C@@H](NC(=O)CCCCCN2C(=O)C=CC2=O)C(C)C)cc1)C(C)C [vc-MMAE, valine-citrulline linker-MMAE] ({Hexanoyl(6-maleimido)}-V[Cit][PABC][NMeV]V[Dil][Dolaproine]-X1)",absorbance against the criteria for phototoxicity testing as defined in the ICH S10 guidance,[14],did not meet the criteria for phototoxicity testing
AGS-22M6,cell survival / cell growth,[10],did not affect cell growth
enfortumab vedotin,photoreactivity / direct phototoxicity,[14]; concluded from absorbance of MMAE and vc-MMAE,not considered to be sufficiently photoreactive
same,dose at which testicular toxicity (seminiferous tubule degeneration and hypospermia in the epididymis) was noted,[20],≥ 2.0 mg/kg
same,reversibility of testicular findings,[20]; end of a 24-week recovery period,partially reversed
same,"immunogenicity, AGS-22M6E versus enfortumab vedotin",[4],comparable
same,median OS,[21],11.7 months
same,median duration of response,[21],7.6 months
same,confirmed ORR,[21]; 1.25 mg/kg,44%
same,"comparability of binding affinity to 191P4D12, enfortumab vedotin versus AGS-22M6E",[22],confirmed
same,"comparability of in vivo antitumor activity, enfortumab vedotin versus AGS-22M6E",[23],confirmed
same,"safety profile, AGS-22M6E versus enfortumab vedotin",[8],comparable
same,"pharmacological antitumor activity, enfortumab vedotin versus AGS-22M6E",[11],comparable
same,median overall survival (OS),[24],12.3 months
same,confirmed ORR,"[24]; by a central review, 1.25 mg/kg, metastatic urothelial cancer after anti-PD-(L)-1 therapy",45%
same,testicular toxicity,[25],not observed
same,"comparability of in vitro cytotoxicity, enfortumab vedotin versus AGS-22M6E",[26],confirmed
